Laboratory results as given in patent publication US8741659B2, “Composition for measuring the binding affinity between nucleic acid and test substance, and use thereof” (Osaka University, priority 2007, dated 2014).

Tested on: RRE
Assay: Fluorescence titration / evaluation of binding with RRE
Design: species or system HIV-1
Experimental: In this Example, binding between RRE and X2S was evaluated by a method identical to the method in Example 2.
The […] of RRE is shown in SEQ ID NO: 8. […] RRE was purchased from Hokkaido System Science Co., Ltd.
Firstly, the X2S solution obtained in Example 1 was diluted with a cacodylate buffer solution (sodium cacodylate: 10 mM, pH 7.0; NaCl: 100 mM), so that a concentration of X2S became 2 μM. To the 2-μM X2S solution thus obtained, RRE was added in steps at 0 μM, 1 μM, 2 μM, 3 μM, 4 μM, 5 μM, 6 μM, and 8 μM. Further, a fluorescence intensity of the 2-μM X2S solution was measured at each concentration. The fluorescence intensity was measured in the same manner as in Example 2.
FIG. 7 is a view illustrating a result of evaluation of binding between X2S and RRE. In FIG. 7, the horizontal axis represents the fluorescence wavelength, whereas the vertical axis represents the fluorescence intensity. […] Other figures include such arrows for results of measurements of fluorescence intensities.
FIG. 8 is a view plotting the fluorescence intensities at a measured wavelength of 453 nm shown in the result illustrated in FIG. 7. The horizontal axis represents the concentration of RRE, whereas the vertical axis represents the fluorescence intensity.
Then, changes in fluorescence intensities were observed.
Firstly, X2S, X2S(3), X2S(4), X2S(5), X2S(2-Me), and 3,6-X2S(2) were respectively mixed with cacodylate buffer solutions (sodium cacodylate: 10 mM, pH 7.0; NaCl: 100 mM) each at 1.0 μM, so that solutions of the respective compounds were obtained. RRE used in this Example was the same as that used in Example 4. RRE was added to each of the solutions of the respective compounds in steps at 0.0 μM, 0.2 μM, 0.4 μM, 0.8 μM, and 1.0 μM.
Each of the solutions to which RRE was added was irradiated with light, and a fluorescence intensity was measured. A device used for measuring the fluorescence intensity was the same as that used in Example 13. A variation in a slit width was also the same as that in Example 14.
FIG. 39 is a graph illustrating a relationship between a concentration of RRE added and a fluorescence intensity of each compound. Further, FIG. 39 is also a view plotting the fluorescence intensities of the respective fluorescence peaks shown in the results illustrated in FIGS. 33 to 38. FIG. 40 is a view plotting residual fluorescence intensities (%) which were obtained based on the results shown in FIGS. 33 to 38, assuming that the fluorescence intensities of the respective fluorescence peaks observed at a concentration of 0.0 μM of RRE were 100%. In each of FIGS. 39 and 40, the horizontal axis represents the concentration of the RNA. In FIG. 39, the vertical axis represents the fluorescence intensity. In FIG. 40, the vertical axis represents the residual fluorescence intensity (%).
FIG. 41 is a view plotting values obtained by dividing (i) the residual fluorescence intensities (%) obtained in the case involving use of the double strand RNA by (ii) the residual fluorescence intensities (%) obtained in the case involving use of RRE. That is, FIG. 41 is a view plotting values obtained by dividing (i) the residual fluorescence intensity (%) shown in FIG. 32 by (ii) the residual fluorescence intensities (%) shown in FIG. 40. FIG. 42 is a view plotting values obtained by subtracting (i) the residual fluorescence intensities (%) obtained in the case involving use of RRE from (ii) the residual fluorescence intensities (%) obtained in the case involving use of the double strand RNA. That is, FIG. 42 is a view plotting values obtained by subtracting (i) the residual fluorescence intensities (%) shown in FIG. 40 from (ii) the residual fluorescence intensities (%) shown in FIG. 32.
In this Example, 1-Pyrenemethanamide, hydrochloride was caused to bind to a double strand RNA or RRE. Then, a change in a fluorescence intensity was observed. […]

`NCCOc1ccc2oc3ccc(OCCN)cc3c(=O)c2c1` [X2S, 2,7-bis(2-aminoethoxy)xanthen-9-one] was tested, and the “reduction of fluorescence intensity (residual fluorescence intensity) on binding RRE” value (1.0 μM compound, RRE 0.0-1.0 μM) was “particularly high reduction rates”, the “fluorescence of X2S on binding to RRE” value (2 μM X2S, RRE 0-8 μM, 453 nm) was “fluorescence of X2S is quenched” and the “difference in quenching efficiency between RRE and double strand RNA” value (FIGS. 41 and 42, 1.0 μM compound) was “greatest”.
